Test results: patent US8088791B2, “Antibacterial agents” (Biots Scientific Management Pty Ltd, priority 2006, dated 2012)
In brackets after ≈: the same amount, converted by molar mass. Where two headings read alike, the source gives them in different places.

What was measured:
[1] = test system: Staphylococcus aureus ATCC29213; assay: Minimum Inhibitory Concentration (MIC) testing, broth microdilution, Staphylococcus aureus; format: cell-based; conditions: Staphylococcus aureus ATCC29213; read-out: Staphylococcus aureus MICs Activity
Procedure, shortened: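 Broth microdilution per NCCLS M7-A5 in Mueller Hinton broth, with compound in 1.6% DMSO and inoculum at OD 0.09 diluted 1:100. Plates incubated 16–20 h at 37°C. MIC is the lowest concentration with no visible growth; scored A ≤8, B 16–64, C >64 μg/ml.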

Bacillus subtilis 168CA = assay: Minimum Inhibitory Concentration (MIC) testing, broth microdilution, Bacillus subtilis; format: cell-based; conditions: Bacillus subtilis 168CA; read-out: Bacillus subtilis MICs Activity
Procedure, shortened: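 MICs were scored A (≦8 μg/ml), B (16–64 μg/ml) or C (>64 μg/ml), read as the lowest concentration preventing visible growth by eye and spectrophotometry. Plates incubated overnight (16–20 h) at 37 °C, inoculum OD 0.09 diluted 1:100 in 2× broth, per NCCLS guidelines.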

[2] = test system: staphylococcal clinical isolates; assay: Minimum Inhibitory Concentration (MIC) testing, broth microdilution, staphylococcal clinical isolates; format: cell-based; conditions: for MIC: read-out: MIC Activity against clinical isolate
Method: (§1) Compounds of this invention were tested for antimicrobial activity by susceptibility testing in liquid media. MICs for compounds against each strain were determined by a broth microdilution method according to the National Committee for Clinical Laboratory Standards (NCCLS) guidelines. (NCCLS. 2000. Methods for dilution antimicrobial susceptibility tests for bacteria that grow aerobically—fifth edition. Approved standard M7-A5. NCCLS, Wayne, Pa.)
(§2) Briefly, test compounds are prepared in 100 μl of 1.6% DMSO solution in multiwell plates. Several bacterial colonies from a freshly streaked plate are transferred to an appropriate rich broth, such as Mueller Hinton. The cell suspension is adjusted to an optical density of 0.09 and further diluted 1:100 with warm 2× broth. This cell suspension is dispensed into the wells containing compound solution so that the final volume is 200 μl. The plates are incubated overnight (16-20 hours) at 37° C. and turbidity is scored by eye and quantified spectrophotometrically. The MIC is defined as the lowest concentration inhibiting visible growth.
Some of the Examples were also tested for activity against staphylococcal clinical isolates. […] Activities were again scored as ‘A’ if the MIC was ≦8 micrograms/ml, ‘B’ if the MIC was 16 to 64 micrograms/ml and ‘C’ if the MIC was greater than 64 micrograms/ml.

[3] = test system: various bacterial species; assay: Minimum Inhibitory Concentration (MIC) testing, broth microdilution, other bacterial species; format: cell-based
Method: as §1, §2
Some of the Examples were also tested for activity against other bacterial species. […] Activities were again scored as ‘A’ if the MIC was ≦8 micrograms/ml, ‘B’ if the MIC was 16 to 64 micrograms/ml and ‘C’ if the MIC was greater than 64 micrograms/ml.

[4] = S. aureus No. 753, Oxacillin S, Hospital
[5] = S. aureus No. 757, Oxacillin R, Tet-R, MI-R, Hospital (tetM)
[6] = S. aureus No. 1134, Oxacillin S, Hospital
[7] = S. aureus No. 1135, Oxacillin R, Van-S, LZD-S, Hospital
[8] = S. aureus No. 1651, Oxacillin R, Van-S, LZD-R, Hospital (G2576T, G)
[9] = S. aureus No. 1652, Oxacillin R, Van-S, LZD-R, Hospital (T2500T, A)
[10] = S. aureus No. 1662, Oxacillin S, Hospital
[11] = S. aureus No. 1725, Oxacillin R, Van-S, LZD-R, Hospital (G2576T)
[12] = S. aureus No. 1729, Oxacillin R, Tet-R, MI-R, Hospital
[13] = S. aureus No. 2011, Oxacillin R, Tet-R, MI-S, Hospital (tetK)
[14] = S. aureus No. 2012, Oxacillin R, Van-I, LZD-S, Hospital
[15] = S. aureus No. 2018, Oxacillin R, Van-I, LZD-S, Hospital
[16] = S. aureus No. 2142, Oxacillin R, CC-S, SXT-S, Community
[17] = S. aureus No. 2143, Oxacillin R, Rif-R, Community
[18] = S. aureus No. 2147, Oxacillin R, CC-S, SXT-S, Community
[19] = S. aureus No. 2149, Oxacillin R, CC-R (iMLS), SXT-S, Community
[20] = S. aureus No. 2150, Oxacillin R, CC-R, SXT-S, Community
[21] = S. aureus No. 2158, Oxacillin R, CC-R, Doxy-I, Community
[22] = S. aureus No. 2175, Oxacillin R, TMP-R, Community
[23] = S. epidermidis No. 831, Oxacillin R
[24] = S. epidermidis No. 1139, Oxacillin S
[25] = S. epidermidis No. 1142, Oxacillin R
[26] = S. epidermidis No. 1144, Oxacillin R
[27] = Staphylococcus aureus, ATCC29213, S. aureus No. 0100, Oxacillin S, ATCC 29213
[28] = Staphylococcus aureus, S. aureus No. 1015, Oxacillin R, Van-S, LZD-S, Hospital
[29] = Staphylococcus epidermidis, S. epidermidis No. 835, Oxacillin S
[30] = Bacillus cereus, ATCC14579, read-out: MIC Activity Bacillus cereus ATCC 14579
[31] = Staphylococcus saprophyticus, ATCC15305, read-out: MIC Activity Staphylococcus saprophyticus ATCC 15305

C#CCCCCCCCCCCOc1cccc(C(N)=O)c1 [Example 66, 3-(11-Dodecynyloxy)benzenecarboxamide]
MIC [1]: < 8 µg/mL
melting point: 106 to 108 °C
MIC (Bacillus subtilis 168CA): < 8 µg/mL

CCc1cccc2sc(COc3ccc(F)c(C(N)=O)c3F)nc12 [Example 223, 3-[(4-Ethyl-1,3-benzothiazol-2-yl)methoxy]-2,6-difluorobenzenecarboxamide]
MIC [1]: < 8 µg/mL
melting point: 184 to 186 °C
MIC (Bacillus subtilis 168CA): < 8 µg/mL

Cc1ccc(S(=O)(=O)OCCCCCCCCCOc2cccc(C(N)=O)c2)cc1 [Example 92, 9-[3-(Aminocarbonyl)phenoxy]nonyl 4-methylbenzenesulfonate]
melting point: 78 to 80 °C
MIC (Bacillus subtilis 168CA): < 8 µg/mL

N#CCCCCCCCCCOc1cccc(C(N)=O)c1 [Example 93, 3-[(9-Cyanononyl)oxy]benzenecarboxamide]
MIC [1]: 16 to 64 µg/mL (≈ 55.5 to 222 µM)
melting point: 96 to 97 °C
MIC (Bacillus subtilis 168CA): < 8 µg/mL

Cc1ccc(-c2nc(COc3ccc(F)c(C(N)=O)c3F)cs2)cc1 [Example 236, 2,6-Difluoro-3-[2-(4-methylphenyl)-1,3-thiazol-4-yl]methoxybenzenecarboxamide]
MIC [1]: < 8 µg/mL
MIC Activity against clinical isolate [2, 4]: A (‘A’ if the MIC was ≦8 micrograms/ml)
MIC Activity against clinical isolate [2, 5]: A (‘A’ if the MIC was ≦8 micrograms/ml)
MIC Activity against clinical isolate [2, 6]: A (‘A’ if the MIC was ≦8 micrograms/ml)
MIC Activity against clinical isolate [2, 7]: A (‘A’ if the MIC was ≦8 micrograms/ml)
MIC Activity against clinical isolate [2, 8]: A (‘A’ if the MIC was ≦8 micrograms/ml)
MIC Activity against clinical isolate [2, 9]: A (‘A’ if the MIC was ≦8 micrograms/ml)
MIC Activity against clinical isolate [2, 10]: A (‘A’ if the MIC was ≦8 micrograms/ml)
MIC Activity against clinical isolate [2, 11]: A (‘A’ if the MIC was ≦8 micrograms/ml)
MIC Activity against clinical isolate [2, 12]: A (‘A’ if the MIC was ≦8 micrograms/ml)
MIC Activity against clinical isolate [2, 13]: A (‘A’ if the MIC was ≦8 micrograms/ml)
MIC Activity against clinical isolate [2, 14]: A (‘A’ if the MIC was ≦8 micrograms/ml)
MIC Activity against clinical isolate [2, 15]: A (‘A’ if the MIC was ≦8 micrograms/ml)
MIC Activity against clinical isolate [2, 16]: A (‘A’ if the MIC was ≦8 micrograms/ml)
MIC Activity against clinical isolate [2, 17]: A (‘A’ if the MIC was ≦8 micrograms/ml)
MIC Activity against clinical isolate [2, 18]: A (‘A’ if the MIC was ≦8 micrograms/ml)
MIC Activity against clinical isolate [2, 19]: A (‘A’ if the MIC was ≦8 micrograms/ml)
MIC Activity against clinical isolate [2, 20]: A (‘A’ if the MIC was ≦8 micrograms/ml)
MIC Activity against clinical isolate [2, 21]: A (‘A’ if the MIC was ≦8 micrograms/ml)
MIC Activity against clinical isolate [2, 22]: A (‘A’ if the MIC was ≦8 micrograms/ml)
MIC Activity against clinical isolate [2, 23]: A (‘A’ if the MIC was ≦8 micrograms/ml)
MIC Activity against clinical isolate [2, 24]: A (‘A’ if the MIC was ≦8 micrograms/ml)
MIC Activity against clinical isolate [2, 25]: A (‘A’ if the MIC was ≦8 micrograms/ml)
MIC Activity against clinical isolate [2, 26]: A (‘A’ if the MIC was ≦8 micrograms/ml)
MIC [2, 27]: < 8 µg/mL
MIC [2, 28]: < 8 µg/mL
MIC [2, 29]: < 8 µg/mL
MIC (Bacillus subtilis 168CA): < 8 µg/mL
MIC [3, 30]: < 8 µg/mL
MIC [3, 31]: < 8 µg/mL

NC(=O)c1c(F)ccc(OCc2ccc3sccc3c2)c1F [Example 201, 3-(1-Benzothiophen-5-ylmethoxy)-2,6-difluorobenzenecarboxamide]
MIC [1]: 16 to 64 µg/mL (≈ 50.1 to 200 µM)
melting point: 146 to 148 °C
MIC (Bacillus subtilis 168CA): < 8 µg/mL

NC(=O)c1cccc(OCCCCCCCc2ccsc2)c1 [Example 63, 3-{[7-(3-Thienyl)heptyl]oxy}benzenecarboxamide]
melting point: 97 to 100 °C
MIC (Bacillus subtilis 168CA): < 8 µg/mL

NC(=O)c1c(F)ccc(OCc2nc3cc(C(F)(F)F)ccc3s2)c1F [Example 217, 2,6-Difluoro-3-[5-(trifluoromethyl)-1,3-benzothiazol-2-yl]methoxybenzenecarboxamide]
MIC [1]: < 8 µg/mL
MIC Activity against clinical isolate [2, 4]: A (‘A’ if the MIC was ≦8 micrograms/ml)
MIC Activity against clinical isolate [2, 5]: A (‘A’ if the MIC was ≦8 micrograms/ml)
MIC Activity against clinical isolate [2, 6]: A (‘A’ if the MIC was ≦8 micrograms/ml)
MIC Activity against clinical isolate [2, 7]: A (‘A’ if the MIC was ≦8 micrograms/ml)
MIC Activity against clinical isolate [2, 8]: A (‘A’ if the MIC was ≦8 micrograms/ml)
MIC Activity against clinical isolate [2, 9]: A (‘A’ if the MIC was ≦8 micrograms/ml)
MIC Activity against clinical isolate [2, 10]: A (‘A’ if the MIC was ≦8 micrograms/ml)
MIC Activity against clinical isolate [2, 11]: A (‘A’ if the MIC was ≦8 micrograms/ml)
MIC Activity against clinical isolate [2, 12]: A (‘A’ if the MIC was ≦8 micrograms/ml)
MIC Activity against clinical isolate [2, 13]: A (‘A’ if the MIC was ≦8 micrograms/ml)
MIC Activity against clinical isolate [2, 14]: A (‘A’ if the MIC was ≦8 micrograms/ml)
MIC Activity against clinical isolate [2, 15]: A (‘A’ if the MIC was ≦8 micrograms/ml)
MIC Activity against clinical isolate [2, 16]: A (‘A’ if the MIC was ≦8 micrograms/ml)
MIC Activity against clinical isolate [2, 17]: A (‘A’ if the MIC was ≦8 micrograms/ml)
MIC Activity against clinical isolate [2, 18]: A (‘A’ if the MIC was ≦8 micrograms/ml)
MIC Activity against clinical isolate [2, 19]: A (‘A’ if the MIC was ≦8 micrograms/ml)
MIC Activity against clinical isolate [2, 20]: A (‘A’ if the MIC was ≦8 micrograms/ml)
MIC Activity against clinical isolate [2, 21]: A (‘A’ if the MIC was ≦8 micrograms/ml)
MIC Activity against clinical isolate [2, 22]: A (‘A’ if the MIC was ≦8 micrograms/ml)
MIC Activity against clinical isolate [2, 23]: A (‘A’ if the MIC was ≦8 micrograms/ml)
MIC Activity against clinical isolate [2, 24]: A (‘A’ if the MIC was ≦8 micrograms/ml)
MIC Activity against clinical isolate [2, 25]: A (‘A’ if the MIC was ≦8 micrograms/ml)
MIC Activity against clinical isolate [2, 26]: A (‘A’ if the MIC was ≦8 micrograms/ml)
MIC [2, 27]: < 8 µg/mL
MIC [2, 28]: < 8 µg/mL
MIC [2, 29]: < 8 µg/mL
MIC (Bacillus subtilis 168CA): < 8 µg/mL
MIC [3, 30]: < 8 µg/mL
MIC ([3]; Staphylococcus epidermidis, ATCC12228, read-out: MIC Activity Staphylococcus epidermidis ATCC 12228): < 8 µg/mL
MIC [3, 31]: < 8 µg/mL

Cc1cc(COc2ccc(F)c(C(N)=O)c2F)ccn1 [Example 198, 2,6-Difluoro-3-[(2-methyl-4-pyridinyl)methoxy]benzenecarboxamide]
melting point: 185 to 186 °C
MIC (Bacillus subtilis 168CA): 16 to 64 µg/mL (≈ 57.5 to 230 µM)
